Results published in article PMC7269503 (Antimicrobial Agents and Chemotherapy, 2020).
In brackets after ≈: the same amount, converted by molar mass. Where two headings read alike, the source gives them in different places.

Experiments:
[1] = molecular target: recombinant M. bovis BCG-derived DprE1 (Mycobacterium tuberculosis, UniProt P9WJF1); test: biochemical
[2] = test system: intracellular M. tuberculosis H37Rv; test: microbe, parasite or virus in culture; assay type: cell-based
[3] = test system: intracellular M. tuberculosis Kurono; test: microbe, parasite or virus in culture; assay type: cell-based
M. africanum ATCC 25420 = test: MIC by agar proportion method, standard strain; assay type: cell-based; details: ATCC25420
[4] = test system: M. tuberculosis ATCC 35822 (H37Rv INH-R); test: MIC by agar proportion method, standard strain; assay type: cell-based; details: Mycobacterium tuberculosis
[5] = test system: M. tuberculosis ATCC 35838 (H37Rv RIF-R); test: MIC by agar proportion method, standard strain; assay type: cell-based; details: Mycobacterium tuberculosis
M. microti ATCC 11152 = test: MIC by agar proportion method, standard strain; assay type: cell-based; details: ATCC11152
[6] = test system: M. tuberculosis ATCC 27294 (H37Rv); test: MIC by agar proportion method, standard strain; assay type: cell-based; details: Mycobacterium tuberculosis
M. caprae ATCC BAA-824 = test: MIC by agar proportion method, standard strain; assay type: cell-based; details: ATCCBAA824
[7] = test system: M. pinnipedii ATCC BAA-688; test: MIC by agar proportion method, standard strain; assay type: cell-based; details: ATCCBAA688
[8] = test system: M. tuberculosis ATCC 35820 (H37Rv SM-R); test: MIC by agar proportion method, standard strain; assay type: cell-based; details: Mycobacterium tuberculosis
[9] = test system: M. tuberculosis ATCC 35812 (Kurono); test: MIC by agar proportion method, standard strain; assay type: cell-based; details: Mycobacterium tuberculosis, ATCC35812
M. tuberculosis Kurono = assay type: in vivo; details: in vivo
M. bovis ATCC BAA-935 = test: microbe, parasite or virus in culture; assay type: cell-based; details: Mycobacterium tuberculosis variant bovis, ATCCBAA935
[10] = test system: M. tuberculosis ATCC 35837 (H37Rv EMB-R); test: MIC by agar proportion method, standard strain; assay type: cell-based; details: Mycobacterium tuberculosis
[11] = test system: M. tuberculosis ATCC 35828 (H37Rv PZA-R); test: MIC by agar proportion method, standard strain; assay type: cell-based; details: Mycobacterium tuberculosis
[12] = M. africanum ATCC 25420, agar proportion method, read-out: MIC
[13] = […], agar proportion method, read-out: MIC
[14] = M. microti ATCC 11152, agar proportion method, read-out: MIC
[15] = ATCC 27294 (H37Rv), agar proportion method, […], read-out: MIC
[16] = M. caprae ATCC BAA-824, agar proportion method, read-out: MIC
[17] = M. pinnipedii ATCC BAA-688, agar proportion method, read-out: MIC
[18] = ATCC 35812 (Kurono), agar proportion method, read-out: MIC

recombinant M. bovis BCG-derived DprE1, sequence (P9WJF1 whole entry): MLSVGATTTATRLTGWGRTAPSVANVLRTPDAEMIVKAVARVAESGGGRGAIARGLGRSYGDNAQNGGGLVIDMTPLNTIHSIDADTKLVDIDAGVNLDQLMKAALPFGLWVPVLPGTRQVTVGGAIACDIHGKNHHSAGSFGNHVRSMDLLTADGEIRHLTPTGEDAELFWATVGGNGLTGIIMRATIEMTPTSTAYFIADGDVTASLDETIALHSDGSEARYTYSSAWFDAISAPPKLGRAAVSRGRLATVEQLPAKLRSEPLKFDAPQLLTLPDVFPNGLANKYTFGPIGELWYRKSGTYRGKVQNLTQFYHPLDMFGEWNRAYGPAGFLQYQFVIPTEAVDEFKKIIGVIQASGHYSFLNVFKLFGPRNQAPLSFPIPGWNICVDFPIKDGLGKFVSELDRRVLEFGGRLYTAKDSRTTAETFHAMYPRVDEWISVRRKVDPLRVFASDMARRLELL

NNC(=O)c1ccncc1 [INH, isoniazid] gave an IC50 [1] greater than 10000 nM.

For [H]/N=C(/N)N[C@H]1[C@H](O)[C@@H](O)[C@H](O[C@@H]2O[C@@H](C)[C@](O)(C=O)[C@H]2O[C@@H]2O[C@@H](CO)[C@H](O)[C@@H](O)[C@@H]2NC)[C@@H](N/C(N)=N\[H])[C@@H]1O [STR, streptomycin], the “bactericidal activity against intracellular bacilli” value (shortened to “bactericidal activity”) ([2]; H37Rv in THP-1-derived macrophage-like cells, 3 days) was “no bactericidal activity” and the “bactericidal activity” value ([3]; Kurono in THP-1-derived macrophage-like cells, 3 days) was “no bactericidal activity”.

In the case of COc1nc2ccc(Br)cc2cc1[C@@H](c1ccccc1)[C@@](O)(CCN(C)C)c1cccc2ccccc12 [BDQ, bedaquiline], the MIC (M. africanum ATCC 25420; [12]) is reported as 0.25 µg/mL (≈ 0.45 µM), the MIC [4, 13] is reported as 0.063 µg/mL (≈ 0.113 µM) and the MIC [5, 13] is reported as 0.063 µg/mL (≈ 0.113 µM). The MIC (M. microti ATCC 11152; [14]) was 0.063 µg/mL (≈ 0.113 µM), the MIC [6, 15] was 0.063 µg/mL (≈ 0.113 µM) and the MIC (M. caprae ATCC BAA-824; [16]) was 0.13 µg/mL (≈ 0.234 µM). The MIC [7, 17] was 0.13 µg/mL (≈ 0.234 µM), the MIC [8, 13] was 0.063 µg/mL (≈ 0.113 µM) and the MIC [9, 18] was 0.063 µg/mL (≈ 0.113 µM). The “lung CFU compared to the vehicle group, single agent” value (M. tuberculosis Kurono) was “significant decrease of lung CFU”, the MIC (M. bovis ATCC BAA-935) was 0.13 µg/mL (≈ 0.234 µM) and the MIC [10, 13] was 0.063 µg/mL (≈ 0.113 µM). For the same compound, the MIC [11, 13] was 0.13 µg/mL (≈ 0.234 µM).

In the case of CO[C@H]1/C=C/O[C@@]2(C)Oc3c(C)c(O)c4c(O)c(c(/C=N/N5CCN(C)CC5)c(O)c4c3C2=O)NC(=O)/C(C)=C\C=C\[C@H](C)[C@H](O)[C@@H](C)[C@@H](O)[C@@H](C)[C@H](OC(C)=O)[C@@H]1C [RIF, rifampin], the MIC (M. africanum ATCC 25420) is reported as 0.25 µg/mL (≈ 0.304 µM), the “bactericidal activity” value [2] is reported as “killed the intracellular bacilli” and the IC90 ([2]; Mycobacterium tuberculosis, H37RV, THP-1, read-out: 90% inhibitory concentration (IC90)) is reported as 1.15 µg/mL (≈ 1.4 µM). The MIC [4] was 0.5 µg/mL (≈ 0.608 µM), the MIC [5] was greater than 16 µg/mL and the MIC (M. microti ATCC 11152) was 0.13 µg/mL (≈ 0.158 µM). The MIC [6] was 0.25 µg/mL (≈ 0.304 µM), the MIC (M. caprae ATCC BAA-824) was 0.13 µg/mL (≈ 0.158 µM) and the MIC [7] was 0.5 µg/mL (≈ 0.608 µM). The MIC [8] was 0.25 µg/mL (≈ 0.304 µM), the MIC [9] was 0.25 µg/mL (≈ 0.304 µM) and the MIC (M. bovis ATCC BAA-935) was 0.063 µg/mL (≈ 0.0766 µM). The “bactericidal activity” value [3] was “killed the intracellular bacilli”, the IC90 ([3]; Mycobacterium tuberculosis, THP-1, read-out: 90% inhibitory concentration (IC90)) was 0.565 µg/mL (≈ 0.686 µM) and the MIC [10] was 0.25 µg/mL (≈ 0.304 µM). For the same compound, the MIC [11] was 1 µg/mL (≈ 1.22 µM).

With COc1c(N2C[C@@H]3CCCN[C@@H]3C2)c(F)cc2c(=O)c(C(=O)O)cn(C3CC3)c12 [MXF, moxifloxacin] the MIC (M. africanum ATCC 25420; [12]) was 0.25 µg/mL (≈ 0.623 µM), the MIC [4, 13] was 0.25 µg/mL (≈ 0.623 µM) and the MIC [5, 13] was 0.25 µg/mL (≈ 0.623 µM). The MIC (M. microti ATCC 11152; [14]) was 0.063 µg/mL (≈ 0.157 µM), the MIC [6, 15] was 0.5 µg/mL (≈ 1.25 µM) and the MIC (M. caprae ATCC BAA-824; [16]) was 0.063 µg/mL (≈ 0.157 µM). It also gave an MIC [7, 17] of 0.25 µg/mL (≈ 0.623 µM), an MIC [8, 13] of 0.5 µg/mL (≈ 1.25 µM) and an MIC [9, 18] of 0.13 µg/mL (≈ 0.324 µM). The MIC (M. bovis ATCC BAA-935) was 0.13 µg/mL (≈ 0.324 µM), the MIC [10, 13] was 0.25 µg/mL (≈ 0.623 µM) and the MIC [11, 13] was 0.5 µg/mL (≈ 1.25 µM).

C[C@H]1COC2(CCN(c3nc(=O)c4cc(C(F)(F)F)cc([N+](=O)[O-])c4s3)CC2)O1 [BTZ043] was tested, and the IC50 [1] was 403 nM.

In the case of CC(=O)NC[C@H]1CN(c2ccc(N3CCOCC3)c(F)c2)C(=O)O1 [LZD, linezolid], the MIC (M. africanum ATCC 25420) is reported as 0.5 µg/mL (≈ 1.48 µM), the MIC [4] is reported as 1 µg/mL (≈ 2.96 µM) and the MIC [5] is reported as 0.5 µg/mL (≈ 1.48 µM). It also gave an MIC (M. microti ATCC 11152) of 0.5 µg/mL (≈ 1.48 µM), an MIC [6] of 1 µg/mL (≈ 2.96 µM) and an MIC (M. caprae ATCC BAA-824) of 0.25 µg/mL (≈ 0.741 µM). It also gave an MIC [7] of 1 µg/mL (≈ 2.96 µM), an MIC [8] of 0.5 µg/mL (≈ 1.48 µM) and an MIC [9] of 1 µg/mL (≈ 2.96 µM). For the same compound, the MIC (M. bovis ATCC BAA-935) was 0.5 µg/mL (≈ 1.48 µM), the MIC [10] was 0.5 µg/mL (≈ 1.48 µM) and the MIC [11] was 1 µg/mL (≈ 2.96 µM).

In the case of C[C@]1(COc2ccc(N3CCC(Oc4ccc(OC(F)(F)F)cc4)CC3)cc2)Cn2cc([N+](=O)[O-])nc2O1 [DMD, delamanid], the MIC (M. africanum ATCC 25420; [12]) is reported as 0.001 µg/mL (≈ 0.00187 µM), the MIC [4, 13] is reported as 0.004 µg/mL (≈ 0.00748 µM) and the MIC [5, 13] is reported as 0.004 µg/mL (≈ 0.00748 µM). The MIC (M. microti ATCC 11152; [14]) was 0.002 µg/mL (≈ 0.00374 µM), the MIC [6, 15] was 0.004 µg/mL (≈ 0.00748 µM) and the MIC (M. caprae ATCC BAA-824; [16]) was 0.002 µg/mL (≈ 0.00374 µM). It also gave an MIC [7, 17] of 0.002 µg/mL (≈ 0.00374 µM), an MIC [8, 13] of 0.004 µg/mL (≈ 0.00748 µM) and an MIC [9, 18] of 0.004 µg/mL (≈ 0.00748 µM). The “lung CFU compared to the vehicle group, single agent” value (M. tuberculosis Kurono) was “significant decrease of lung CFU”, the MIC (M. bovis ATCC BAA-935) was 0.004 µg/mL (≈ 0.00748 µM) and the MIC [10, 13] was 0.004 µg/mL (≈ 0.00748 µM). It also gave an MIC [11, 13] of 0.004 µg/mL (≈ 0.00748 µM).

C[C@H]1COc2c(N3CCN(C)CC3)c(F)cc3c(=O)c(C(=O)O)cn1c23 [LVX, levofloxacin] gave an MIC (M. africanum ATCC 25420; [12]) of 0.25 µg/mL (≈ 0.692 µM), an MIC [4, 13] of 0.5 µg/mL (≈ 1.38 µM) and an MIC [5, 13] of 0.5 µg/mL (≈ 1.38 µM). It also gave an MIC (M. microti ATCC 11152; [14]) of 0.25 µg/mL (≈ 0.692 µM), an MIC [6, 15] of 0.5 µg/mL (≈ 1.38 µM) and an MIC (M. caprae ATCC BAA-824; [16]) of 0.25 µg/mL (≈ 0.692 µM). The MIC [7, 17] was 0.25 µg/mL (≈ 0.692 µM), the MIC [8, 13] was 0.5 µg/mL (≈ 1.38 µM) and the MIC [9, 18] was 0.5 µg/mL (≈ 1.38 µM). For the same compound, the “lung CFU compared to the vehicle group, single agent” value (M. tuberculosis Kurono) was “significant decrease of lung CFU”, the MIC (M. bovis ATCC BAA-935) was 0.25 µg/mL (≈ 0.692 µM) and the MIC [10, 13] was 0.5 µg/mL (≈ 1.38 µM). The MIC [11, 13] was 0.5 µg/mL (≈ 1.38 µM).
